# Columns and labels:
# [1] = system: POLCO; assay: Post-emergence herbicidal action against POLCO; type: in vivo, Polygonum convolvulus; details: Fallopia convolvulus, 504 h, dosage 20 g/ha
# How it was run: (§1)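 Foliar application at one-leaf stage of formulated test compounds, aqueous spray at 600–800 l/ha with 0.2% wetting agent. Greenhouse, optimal conditions, ~3 weeks; damage scored visually in % relative to untreated plants.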
# [2] = system: DIGSA; assay: Post-emergence herbicidal action against DIGSA; type: in vivo, Digitaria sanguinalis; details: Digitaria sanguinalis, 504 h
# How it was run: as §1
# [3] = system: POLCO; assay: Pre-emergence herbicidal action against POLCO; type: in vivo, Polygonum convolvulus; details: Fallopia convolvulus, 504 h, dosage 80 g/ha
# How it was run: (§2)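 Greenhouse pots of sandy loam held seeds covered with soil, onto which the compound was applied before emergence. An aqueous suspension or emulsion of WP or EC was used at 600 to 800 l/ha with 0.2% wetting agent. Percent damage was judged visually at 3 weeks.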
# [4] = system: LOLRI; assay: Pre-emergence herbicidal action against LOLRI; type: in vivo, Lolium rigidum; details: Lolium rigidum, 504 h, 80 g/ha
# How it was run: as §2
# [5] = system: VIOTR; assay: Pre-emergence herbicidal action against VIOTR; type: in vivo, Viola tricolor; details: Viola tricolor, 504 h
# How it was run: as §2
# [6] = system: SETVI; assay: Pre-emergence herbicidal action against SETVI; type: in vivo, Setaria viridis; details: Setaria viridis, 504 h
# How it was run: as §2
# [7] = system: ABUTH; assay: Pre-emergence herbicidal action against ABUTH; type: in vivo, Abutilon theophrasti; details: Abutilon theophrasti, 504 h
# How it was run: as §2
# [8] = system: MATIN; assay: Pre-emergence herbicidal action against MATIN; type: in vivo, Matricaria inodora; details: Tripleurospermum inodorum, 504 h
# How it was run: as §2
# [9] = system: ALOMY; assay: Pre-emergence herbicidal action against ALOMY; type: in vivo, Alopecurus myosuroides; details: Alopecurus myosuroides, 504 h, pre-emergence
# How it was run: as §2
# [10] = system: STEME; assay: Post-emergence herbicidal action against STEME; type: in vivo, Stellaria media; details: Stellaria media, 504 h
# How it was run: as §1
# [11] = system: VERPE; assay: Pre-emergence herbicidal action against VERPE; type: in vivo, Veronica persica; details: Veronica persica, 504 h, dosage 80 g/ha
# How it was run: as §2
# [12] = system: STEME; assay: Pre-emergence herbicidal action against STEME; type: in vivo, Stellaria media; details: Stellaria media, 504 h
# How it was run: as §2
# [13] = system: AVEFA; assay: Post-emergence herbicidal action against AVEFA; type: in vivo, Avena fatua; details: Avena fatua, 504 h, 20 g/ha, visual assessment about 3 weeks after treatment, 100% = plants have died, 0% = like control plants
# How it was run: as §1
# [14] = system: ECHCG; assay: Pre-emergence herbicidal action against ECHCG; type: in vivo, Echinochloa crus-galli; details: Echinochloa crus-galli, 504 h, 80 g/ha
# How it was run: as §2
# [15] = system: AMARE; assay: Pre-emergence herbicidal action against AMARE; type: in vivo, Amaranthus retroflexus; details: Amaranthus retroflexus, 504 h, scored visually after 3 weeks vs untreated controls, 100% = plants have died, 0% = like control plants
# How it was run: as §2
# [16] = system: ABUTH; assay: Post-emergence herbicidal action against ABUTH; type: in vivo, Abutilon theophrasti; details: Abutilon theophrasti, 504 h, visual assessment about 3 weeks after treatment vs untreated controls
# How it was run: as §1
# [17] = system: AVEFA; assay: Pre-emergence herbicidal action against AVEFA; type: in vivo, Avena fatua; details: Avena fatua, 504 h, pre-emergence
# How it was run: as §2
# [18] = system: ECHCG; assay: Post-emergence herbicidal action against ECHCG; type: in vivo, Echinochloa crus-galli; details: Echinochloa crus-galli, 504 h, dosage 20 g/ha
# How it was run: as §1
# [19] = system: SETVI; assay: Post-emergence herbicidal action against SETVI; type: in vivo, Setaria viridis; details: Setaria viridis, 504 h
# How it was run: as §1
# [20] = system: HORMU; assay: Pre-emergence herbicidal action against HORMU; type: in vivo, Hordeum murinum; details: Hordeum murinum, 504 h; 80 g/ha, pre-emergence
# How it was run: as §2
# [21] = system: AMARE; assay: Post-emergence herbicidal action against AMARE; type: in vivo, Amaranthus retroflexus; details: Amaranthus retroflexus, 504 h, 20 g/ha, visual assessment about 3 weeks after treatment, 100% = plants have died, 0% = like control plants
# How it was run: as §1
# [22] = system: VIOTR; assay: Post-emergence herbicidal action against VIOTR; type: in vivo, Viola tricolor; details: Viola tricolor, 504 h
# How it was run: as §1
# [23] = system: DIGSA; assay: Pre-emergence herbicidal action against DIGSA; type: in vivo, Digitaria sanguinalis; details: Digitaria sanguinalis, 504 h
# How it was run: as §2
# [24] = system: MATIN; assay: Post-emergence herbicidal action against MATIN; type: in vivo, Matricaria inodora; details: Tripleurospermum inodorum, 504 h, dosage 20 g/ha
# How it was run: as §1
# [25] = system: VERPE; assay: Post-emergence herbicidal action against VERPE; type: in vivo, Veronica persica; details: Veronica persica, 504 h
# How it was run: as §1
# [26] = system: ALOMY; assay: Post-emergence herbicidal action against ALOMY; type: in vivo, Alopecurus myosuroides; details: Alopecurus myosuroides, 504 h, dosage 20 g/ha, visual assessment about 3 weeks after treatment vs untreated controls
# How it was run: as §1
# [27] = system: PHBPU; assay: Post-emergence herbicidal action against PHBPU; type: in vivo, Pharbitis purpurea; details: Ipomoea purpurea, 504 h, dosage 20 g/ha
# How it was run: as §1
# [28] = 80 g/ha, scored visually after 3 weeks vs untreated controls (100% = plants have died, 0% = like control plants)
# [29] = 20 g/ha, scored visually after 3 weeks, 100% = plants have died, 0% = like control plants
smiles,measurement,setting,value
Cn1nnnc1NC(=O)c1ccc(C(F)F)c(C(=O)NC2CC2)c1Cl [Example 1-149],pest or weed control at 20 g/ha,[1],100%
same,pest or weed control at 5 g/ha,[2]; 5 g/ha,100%
same,pest or weed control at 20 g/ha,[2]; 20 g/ha,100%
same,pest or weed control at 80 g/ha,[3],80%
same,pest or weed control at 80 g/ha,[4],90%
same,pest or weed control at 20 g/ha,[5]; dosage 20 g/ha,100%
same,pest or weed control at 80 g/ha,[5]; dosage 80 g/ha,100%
same,pest or weed control at 20 g/ha,[6]; dosage 20 g/ha,90%
same,pest or weed control at 80 g/ha,[6]; dosage 80 g/ha,100%
same,pest or weed control at 80 g/ha,[7]; [28],100%
same,pest or weed control at 20 g/ha,"[7]; dosage 20 g/ha, scored visually after 3 weeks vs untreated controls, 100% = plants have died, 0% = like control plants, read-out: Pre-emergence action against ABUTH (herbicidal activity in percent)",100%
same,pest or weed control at 20 g/ha,[8]; dosage 20 g/ha,100%
same,pest or weed control at 80 g/ha,[8]; dosage 80 g/ha,100%
same,pest or weed control at 80 g/ha,[9]; [28],90%
same,pest or weed control at 20 g/ha,[9]; [29],80%
same,pest or weed control at 20 g/ha,[10]; 20 g/ha,90%
same,pest or weed control at 5 g/ha,[10]; dosage 5 g/ha,90%
same,pest or weed control at 80 g/ha,[11],100%
same,pest or weed control at 20 g/ha,[12]; dosage 20 g/ha,90%
same,pest or weed control at 80 g/ha,[12]; dosage 80 g/ha,100%
same,pest or weed control at 20 g/ha,[13],100%
same,pest or weed control at 80 g/ha,[14],100%
same,pest or weed control at 20 g/ha,[15]; 20 g/ha,100%
same,pest or weed control at 80 g/ha,[15]; 80 g/ha,100%
same,pest or weed control at 5 g/ha,[16]; dosage 5 g/ha,80%
same,pest or weed control at 20 g/ha,[16]; dosage 20 g/ha,100%
same,pest or weed control at 80 g/ha,[17]; 80 g/ha,100%
same,pest or weed control at 20 g/ha,[17]; [29],80%
same,pest or weed control at 20 g/ha,[18],80%
same,pest or weed control at 5 g/ha,[19]; dosage 5 g/ha,100%
same,pest or weed control at 20 g/ha,[19]; dosage 20 g/ha,100%
same,pest or weed control at 80 g/ha,[20],90%
same,pest or weed control at 20 g/ha,[21],100%
same,pest or weed control at 5 g/ha,[22]; 5 g/ha,100%
same,pest or weed control at 20 g/ha,[22]; 20 g/ha,100%
same,pest or weed control at 20 g/ha,[23]; dosage 20 g/ha,100%
same,pest or weed control at 80 g/ha,[23]; dosage 80 g/ha,100%
same,pest or weed control at 20 g/ha,[24],100%
same,pest or weed control at 5 g/ha,[25]; 5 g/ha,80%
same,pest or weed control at 20 g/ha,[25]; 20 g/ha,100%
same,pest or weed control at 20 g/ha,[26],80%
same,pest or weed control at 20 g/ha,[27],90%

# — patent publication US12655116B2, “Substituted isophthalic acid diamides” (Bayer Aktiengesellschaft, priority 2020, dated 2026)
